Measurements published in article PMC3546728, “Bacterial Over-Expression and Purification of the 3′phosphoadenosine 5′phosphosulfate (PAPS) Reductase Domain of Human FAD Synthase: Functional Characterization and Homology Modeling” (International Journal of Molecular Sciences, 2012).

What was measured:
6-His-Δ1-328-hFADS [1] = biological target: T1, 6-His-Δ1-328-hFADS (Homo sapiens, UniProt Q8NFF5); assay: absorbance spectrum of purified holoprotein; HPLC of flavin released by acid; format: binding; details: co-purified, tightly bound FAD, 40 mM Hepes/Na, 5 mM β-mercaptoethanol, pH 7.4
T1 construct: gene FLAD1; C-terminal PAPS reductase domain, residues 329-587; vector pH6EX3; E. coli Rosetta (DE3); theoretical 31499 Da, ~28 kDa on SDS-PAGE

6-His-Δ1-328-hFADS [2] = biological target: T1, 6-His-Δ1-328-hFADS; assay: fluorimetric FAD synthesis rate; format: biochemical; details: competitive; data not shown

T1 sequence (Q8NFF5 329-587, stated change not applied): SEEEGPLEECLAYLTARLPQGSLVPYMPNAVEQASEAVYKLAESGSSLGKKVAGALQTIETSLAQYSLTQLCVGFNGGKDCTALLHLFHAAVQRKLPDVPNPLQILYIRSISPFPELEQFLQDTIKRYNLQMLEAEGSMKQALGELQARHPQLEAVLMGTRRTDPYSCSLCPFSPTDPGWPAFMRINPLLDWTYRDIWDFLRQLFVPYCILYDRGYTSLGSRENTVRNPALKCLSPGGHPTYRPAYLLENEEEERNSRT

Compound | FAD/protein monomer ratio (6-His-Δ1-328-hFADS [1]) | fluorimetric FAD synthesis rate (6-His-Δ1-328-hFADS [2])
Cc1cc2nc3c(=O)[nH]c(=O)nc-3n(C[C@H](O)[C@H](O)[C@H](O)COP(=O)(O)OP(=O)(O)OC[C@H]3O[C@@H](n4cnc5c(N)ncnc54)[C@H](O)[C@@H]3O)c2cc1C [FAD] | demonstrates that the bound cofactor is FAD with a FAD/protein monomer ratio | 
Nc1nc2c(ncn2[C@@H]2O[C@H](COP(=O)(O)OP(=O)(O)O)[C@@H](O)[C@H]2O)c(=O)[nH]1 [GDP] |  | no significant changes were found in competitive inhibition by GDP (data not shown)
